Measurements reported in patent US20250263426A1, “PDE4B INHIBITOR AND USE THEREOF” (Xizang Haisco Pharmaceutical Co., Ltd., priority 2022, published 2025).
Where two headings read alike, the source gives them in different places.

Legend:
[1] = target: PDE4D2 (Homo sapiens (Human), UniProt Q08499); assay: Effect of compounds on PDE4D2 activity (fluorescence polarization kit); type: biochemical
Method: FP was usually represented by mP value.
[formula] • I∥ (S520): fluorescence intensity in parallel direction • I⊥ (P520): fluorescence intensity in perpendicular direction • G: G factor=1
[formula] • mP(sample): mP of the test compound in a reaction well • mP(negative control): mP in the negative control well • mP(positive control): mP in the positive control well
According to the calculated inhibition rate at each concentration, the IC50 value of each compound was calculated by GraphPad Prism 8 software.

[2] = target: PDE4B2 (Homo sapiens (Human), UniProt Q07343); assay: Effect of compounds on PDE4B2 activity (fluorescence polarization kit)
Description: [formula] • I∥ (S535): fluorescence intensity in parallel direction • I⊥ (P535): fluorescence intensity in perpendicular direction • G: G factor=1

[3] = test system: human peripheral blood mononuclear cells (TNF-α release); assay: Inhibition of LPS-induced TNF-α release from human peripheral blood mononuclear cells in vitro; type: cell-based; settings: 4 h; for IC50: read-out: Re IC50
Method: 5. Detection of Inhibitory Activity of Compounds on the Release of Tumor Necrosis Factor-α (TNF-α) from Human Peripheral Blood Mononuclear Cells Induced by Lipopolysaccharide (LPS) In Vitro
The concentration of hPBMC cells was adjusted to 0.25×10^6 cells/mL with RPMI1640 medium and inoculated into a 96-well plate in an amount of 50000 cells per well. […] Incubation was carried out for 4 h in an incubator at 37° C. and 5% CO2. The cell supernatant was collected, and the content of TNF-α in the supernatant sample was detected by human TNF-α Elisa quantitative test kit (Sino Biological, Cat #KIT10602). The IC50 value was calculated using GraphPad Prism software.

[4] = relative IC50, hPBMC, 100 ng/mL LPS

PDE4B2, sequence (Q07343 other isoform, or with tags, fused parts or gaps): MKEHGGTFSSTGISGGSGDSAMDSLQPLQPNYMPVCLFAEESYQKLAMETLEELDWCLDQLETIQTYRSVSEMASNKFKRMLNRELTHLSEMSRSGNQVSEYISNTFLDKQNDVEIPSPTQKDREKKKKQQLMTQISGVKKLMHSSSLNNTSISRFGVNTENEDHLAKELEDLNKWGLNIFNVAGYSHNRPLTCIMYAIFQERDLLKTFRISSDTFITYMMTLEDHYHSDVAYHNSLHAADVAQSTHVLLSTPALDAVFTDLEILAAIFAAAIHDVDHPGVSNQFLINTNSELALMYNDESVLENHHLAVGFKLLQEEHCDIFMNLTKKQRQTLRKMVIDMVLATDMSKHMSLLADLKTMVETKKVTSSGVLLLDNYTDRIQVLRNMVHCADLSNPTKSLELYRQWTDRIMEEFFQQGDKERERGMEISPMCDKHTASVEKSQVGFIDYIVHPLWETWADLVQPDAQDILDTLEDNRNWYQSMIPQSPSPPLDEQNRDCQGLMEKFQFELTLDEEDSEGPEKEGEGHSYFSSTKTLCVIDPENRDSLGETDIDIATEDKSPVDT
PDE4D2, sequence (Q08499 303-809, change not shown): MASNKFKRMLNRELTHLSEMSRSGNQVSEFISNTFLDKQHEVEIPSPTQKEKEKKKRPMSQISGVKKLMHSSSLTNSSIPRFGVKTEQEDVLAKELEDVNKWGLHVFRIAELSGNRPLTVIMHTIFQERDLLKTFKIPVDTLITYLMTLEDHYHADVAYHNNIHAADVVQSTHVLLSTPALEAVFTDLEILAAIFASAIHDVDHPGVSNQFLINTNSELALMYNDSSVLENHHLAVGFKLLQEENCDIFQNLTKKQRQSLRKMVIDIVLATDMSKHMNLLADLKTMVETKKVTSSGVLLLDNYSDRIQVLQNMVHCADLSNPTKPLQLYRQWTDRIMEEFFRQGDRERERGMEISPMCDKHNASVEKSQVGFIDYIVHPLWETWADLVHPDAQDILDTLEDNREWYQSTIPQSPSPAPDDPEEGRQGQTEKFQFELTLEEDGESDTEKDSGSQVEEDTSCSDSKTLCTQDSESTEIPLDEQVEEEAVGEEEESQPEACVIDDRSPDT

SMILES	IC50 [1]	IC50 ([2]; read-out: PDE4B2 IC50)	IC50 [2]	also measured
[O-][S+]1CCc2nc(N3C[C@@H]4CC(c5ccc(Cl)cc5)=C[C@@H]4C3)nc(NC3CN(CCCF)C3)c21 (single isomer, unassigned) [Compound 24-2]	10 to 50 nM	< 10 nM	–	–
CC#Cc1cnc(C2=CCN(c3nc4c(c(NC(C)(C)COC(N)=O)n3)[S+]([O-])CC4)CC2)nc1 (single isomer, unassigned) [Compound 110-1]	–	–	–	Max inhibition (%) ([3]; hPBMC, 100 ng/mL LPS): 88.09%; IC50 [3, 4]: < 10 nM
CC#Cc1cnc(C2=CCN(c3nc4c(c(NC(C)(C)COC(N)=O)n3)[S+]([O-])CC4)CC2)nc1 (single isomer, unassigned) [Compound 110-2]	–	–	–	Max inhibition (%) ([3]; hPBMC, 100 ng/mL LPS): 74.07%; IC50 [3, 4]: < 10 nM
[O-][S@@+]1CCCc2nc(N3CCN(c4ncc(Cl)cn4)CC3)nc(NC3(CO)CCC3)c21 [Compound 12-2]	10 to 50 nM	< 10 nM	–	–
[O-][S@@+]1CCCc2nc(N3C[C@H]4CN(c5ccc6c(c5)CC6)C[C@H]4C3)nc(NC3(CO)CCC3)c21 [Compound 13-2]	10 to 50 nM	< 10 nM	–	–
[O-][S@@+]1CCCc2nc(N3C[C@H]4CN(c5ncc(Cl)cn5)C[C@H]4C3)nc(NC3(CO)CCC3)c21 [Compound 14-1]	10 to 50 nM	10 to 50 nM	–	–
[O-][S@+]1CCCc2nc(N3C[C@H]4CN(c5ccc(Cl)cc5)C[C@H]4C3)nc(NC3(CO)CCC3)c21 [Compound 15-2]	10 to 50 nM	< 10 nM	–	–
[O-][S@@+]1CCCc2nc(N3CCC=C(c4ccc(Cl)cc4)CC3)nc(NC3(CO)CCC3)c21 [Compound 16-2]	10 to 50 nM	10 to 50 nM	–	–
[O-][S@@+]1CCCc2nc(N3CCC=C(c4ncc(Cl)cn4)CC3)nc(NC3(CO)CCC3)c21 [Compound 17-2]	10 to 50 nM	< 10 nM	–	–
O=C1CCCc2nc(N3CC4=C(CN(c5ncc(Cl)cn5)C4)C3)nc(NC3(CO)CCC3)c21 [Compound 19-1]	10 to 50 nM	< 10 nM	–	–
[O-][S@+]1CCc2nc(N3CC=C(c4ncc(Cl)cn4)CC3)nc(NC3(CO)CCCC3)c21 [Compound 30]	< 10 nM	–	< 10 nM	–
CC(C)(CO)Nc1nc(N2CC=C(c3ncc(Cl)cn3)CC2)nc2c1[S+]([O-])CC2 (stereo not drawn) [Compound 31]	10 to 50 nM	–	10 to 50 nM	–
C#Cc1cnc(C2=CCN(c3nc4c(c(Nc5cccc(F)c5)n3)[S@@+]([O-])CC4)CC2)nc1 [Compound 36-2]	10 to 50 nM	10 to 50 nM	–	–
C#Cc1cnc(C2=CCN(c3nc4c(c(NC5(c6ncc[nH]6)CCC5)n3)[S@+]([O-])CC4)CC2)nc1 [Compound 37]	–	–	–	IC50 ([3]; Homo sapiens, PBMC): 10 to 50 nM; Emax ([3]; Homo sapiens, PBMC, hPBMC, 100 ng/mL LPS, read-out: Max inhibition (%)): 78.3%
NC(=O)OCC1(Nc2nc(N3CC=C(c4ncc(C5CC5)cn4)CC3)nc3c2[S@+]([O-])CC3)CCC1 [Compound 47]	< 10 nM	–	–	Max inhibition (%) ([3]; hPBMC, 100 ng/mL LPS): 80.45%; IC50 [3, 4]: < 10 nM
O=S1(=O)CCCc2nc(N3CC=C(c4ncc(Cl)cn4)CC3)nc(NC3(CO)CCC3)c21 [Compound 54]	–	–	50 to 100 nM	–
NC(=O)OCC1(Nc2nc(N3CCC(c4ncc(Cl)cn4)CC3)nc3c2[S@+]([O-])CC3)CCC1 [Compound 55]	–	–	50 to 100 nM	–
C#Cc1cnc(N2CCN(c3nc4c(c(NC5(COC(N)=O)CCC5)n3)[S@+]([O-])CC4)CC2)nc1 [Compound 57]	10 to 50 nM	–	< 10 nM	–
NC(=O)OCC1(Nc2nc(N3C[C@H]4CN(c5ccc6c(c5)CC6)C[C@H]4C3)nc3c2[S@+]([O-])CC3)CCC1 [Compound 58]	10 to 50 nM	–	< 10 nM	–
[O-][S@+]1CCc2nc(N3CC4CN(c5ccc6c(c5)CC6)CC4C3)nc(Nc3cccc(S(F)(F)(F)(F)F)c3)c21 (stereo partly drawn) [Compound 75-1]	10 to 50 nM	10 to 50 nM	–	–
CC#Cc1cnc(C2=CCN(c3nc4c(c(NC5(COC(F)F)CCC5)n3)[S@+]([O-])CC4)CC2)nc1 [Compound 92-1]	< 10 nM	–	–	Max inhibition (%) ([3]; hPBMC, 100 ng/mL LPS): 69.72%; IC50 [3, 4]: < 10 nM
CC#Cc1cnc(C2=CCN(c3nc4c(c(NC5(COC(F)F)CCC5)n3)[S@@+]([O-])CC4)CC2)nc1 [Compound 92-2]	10 to 50 nM	–	–	–
C#Cc1ccc(C2=CCN(c3nc4c(c(NC5([C@@H](C)O)CCC5)n3)[S@+]([O-])CC4)CC2)nc1 [Compound 95-1]	< 10 nM	< 10 nM	–	–
C#Cc1ccc(C2=CCN(c3nc4c(c(NC5([C@H](C)O)CCC5)n3)[S@@+]([O-])CC4)CC2)nc1 [Compound 95-4]	< 10 nM	< 10 nM	–	–
C#Cc1cnc(C2=CCN(c3nc4c(c(NC5([C@@H](C)O)CCC5)n3)[S@@+]([O-])CC4)CC2)nc1 [Compound 96-3]	10 to 50 nM	< 10 nM	–	–

SMILES	IC50 [1]	IC50 ([2]; read-out: PDE4B2 IC50)	IC50 [2]	also measured
CC(C)(COC(N)=O)Nc1nc(N2CCC=C(c3ncc(Cl)cn3)CC2)nc2c1[S@+]([O-])CC2 [Compound 102-1]	–	–	–	Max inhibition (%) ([3]; hPBMC, 100 ng/mL LPS): 99.73%; IC50 [3, 4]: 10 to 50 nM
CC(C)(COC(N)=O)Nc1nc(N2CCC=C(c3ncc(Cl)cn3)CC2)nc2c1[S@@+]([O-])CC2 [Compound 102-2]	–	–	–	Max inhibition (%) ([3]; hPBMC, 100 ng/mL LPS): 87.54%; IC50 [3, 4]: < 10 nM
CC(C)(CO)Nc1nc(N2CC=C(c3ccc4c(c3)C[Si](C)(C)C4)CC2)nc2c1[S@+]([O-])CC2 [Compound 107]	10 to 50 nM	10 to 50 nM	–	–
CC(C)(COC(N)=O)Nc1nc(N2CC=C(c3ccc4c(c3)C[Si](C)(C)C4)CC2)nc2c1[S@+]([O-])CC2 [Compound 108]	10 to 50 nM	–	10 to 50 nM	–
CN1C[C@@H](Nc2nc(N3C[C@H]4CN(c5ccc6c(c5)CC6)C[C@H]4C3)nc3c2[S@+]([O-])CC3)CCC1=O [Compound 109-2]	50 to 100 nM	10 to 50 nM	–	–
CC#Cc1cnc2c(c1)OC[C@H]1CN(c3nc4c(c(NC(C)(C)COC(N)=O)n3)[S@+]([O-])CC4)CCN21 [Compound 112-2]	50 to 100 nM	10 to 50 nM	–	–
CC(C)(COC(N)=O)Nc1nc(N2CCN3c4ncc(C5CC5)cc4OC[C@H]3C2)nc2c1[S@+]([O-])CC2 [Compound 113-2]	50 to 100 nM	10 to 50 nM	–	–
CC(C)(COC(N)=O)Nc1nc(N2CC=C(c3ncc(C4CC4)cn3)C2)nc2c1[S@+]([O-])CC2 [Compound 116]	50 to 100 nM	–	10 to 50 nM	–
CC(C)(COC(N)=O)Nc1nc(N2CC=C(c3ncccn3)CC2)nc2c1[S@+]([O-])CC2 [Compound 118]	10 to 50 nM	–	10 to 50 nM	–
Cc1cnc(C2=CCN(c3nc4c(c(NC(C)(C)COC(N)=O)n3)[S@+]([O-])CC4)CC2)nc1 [Compound 122]	10 to 50 nM	–	10 to 50 nM	–
COc1cnc(C2=CCN(c3nc4c(c(NC(C)(C)COC(N)=O)n3)[S@+]([O-])CC4)CC2)nc1 [Compound 124]	10 to 50 nM	–	10 to 50 nM	–
CC(C)(COC(N)=O)Nc1nc(N2CC=C(c3ncc4c(n3)CCC4)CC2)nc2c1[S@+]([O-])CC2 [Compound 125]	10 to 50 nM	–	10 to 50 nM	–
CC(C)(COC(N)=O)Nc1nc(N2CC=C(c3ncc(C4CCC4)cn3)CC2)nc2c1[S@+]([O-])CC2 [Compound 126]	10 to 50 nM	–	< 10 nM	–
CCOc1cnc(C2=CCN(c3nc4c(c(NC(C)(C)COC(N)=O)n3)[S@+]([O-])CC4)CC2)nc1 [Compound 128]	< 10 nM	–	< 10 nM	–
CC(C)c1cnc(C2=CCN(c3nc4c(c(NC(C)(C)COC(N)=O)n3)[S@+]([O-])CC4)CC2)nc1 [Compound 129]	10 to 50 nM	–	< 10 nM	–
CC(C)(COC(N)=O)Nc1nc(N2CC=C(c3ncc(C(F)F)cn3)CC2)nc2c1[S@+]([O-])CC2 [Compound 130]	10 to 50 nM	–	10 to 50 nM	–
CC(C)(COC(N)=O)Nc1nc(N2CC=C(c3ncc4c(n3)CC4)CC2)nc2c1[S@+]([O-])CC2 [Compound 132]	10 to 50 nM	–	10 to 50 nM	–
CC(C)(CC#N)Nc1nc(N2CC=C(c3ncc(C4CC4)cn3)CC2)nc2c1[S@+]([O-])CC2 [Compound 134]	< 10 nM	< 10 nM	–	–
N#CCC1(Nc2nc(N3CC=C(c4ncc(C5CC5)cn4)CC3)nc3c2[S@+]([O-])CC3)CCC1 [Compound 135]	< 10 nM	–	< 10 nM	–
CC(C)(COC(N)=O)Nc1nc(N2CC=C(c3ncc4occc4n3)CC2)nc2c1[S@+]([O-])CC2 [Compound 136]	< 10 nM	–	< 10 nM	–
CC(C)(COC(N)=O)Nc1nc(N2CCC=C(c3ncc(C4CC4)cn3)CC2)nc2c1[S@+]([O-])CC2 [Compound 137]	10 to 50 nM	–	10 to 50 nM	–
CN(C)c1cnc(C2=CCN(c3nc4c(c(NC(C)(C)COC(N)=O)n3)[S@+]([O-])CC4)CC2)nc1 [Compound 138]	10 to 50 nM	–	10 to 50 nM	–
COC(=O)NCC(C)(C)Nc1nc(N2C[C@H]3CC(c4ncc5c(n4)CC5)=C[C@H]3C2)nc2c1[S@+]([O-])CC2 [Compound 139-2]	10 to 50 nM	10 to 50 nM	–	–
COC(=O)NCC(C)(C)Nc1nc(N2CCN3c4ncc(C)cc4OC[C@H]3C2)nc2c1[S@+]([O-])CC2 [Compound 141-1]	10 to 50 nM	10 to 50 nM	–	–
COC(=O)NCC(C)(C)Nc1nc(N2CCN3c4ncc(C)cc4OC[C@@H]3C2)nc2c1[S@+]([O-])CC2 [Compound 141-2]	50 to 100 nM	10 to 50 nM	–	–
